From patent US20160319239A1, “COMPOSITIONS AND METHODS FOR CULTURING CELLS FROM NORMAL HUMAN TUBO-OVARIAN EPITHELIUM AND HUMAN TUBO-OVARIAN TUMORS” (Whitehead Institute for Biomedical Research, priority 2011, published 2016)

Tested on: OCI ovarian tumor lines (P7a, P2a, C2p) and ATCC/ECACC ovarian tumor lines (ES2 and OV90)
Assay: Alamar Blue viable cell assay with serial dilutions of paclitaxel or cisplatin, OCI vs ATCC/ECACC lines
Assay type: cell-based, human
Conditions: WIT-oc medium, 5000 cells/well, 72 hrs drug incubation
Description: The next day serial dilutions of paclitaxel were added to the plate.
The next day serial dilutions of cisplatin were added to the plate. […] There was a dramatic difference in the effect of the paclitaxel or cisplatin on OCI cell lines vs. ATCC/ECACC cell lines.
Cisplatin is an example of a chemotherapeutic drug that causes DNA cross linking. Cisplatin binds to DNA and chemically crosslinks the two strands, which causes DNA damage during cell division. This elicits repair mechanisms, which in turn activate apoptosis when repair proves impossible. We plated the OCI ovarian tumor lines (P7a, P2a, C2p) and ATCC/ECACC ovarian tumor lines (ES2 and OV90) in WIT-oc medium (5000 cells/well) in plates in triplicate. The next day serial dilutions of cisplatin were added to the plate.

`N.N.[Cl][Pt][Cl]` [cisplatin] was tested, and the “concentration that produced a 50% decrease in tumor cell numbers (LD90), fold higher in OCI lines compared to ATCC/ECACC lines” value was “more than 6 fold”.
